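Dose response: 5 concentrations. Exposure: 48 h. Format: 96-well plates. Endpoint: linear interpolation; highest concentration if not reached. The concentration for 50% growth inhibition is given as GI50.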 Active and inactive are the calls of the source. Cut-off read from the data, not from the text of the source: active = GI50 up to about 1.1 µM and inactive = higher.
Tests used:
Experiment in all cases: NCI anticancer screen, dose series, 48 h
[1] = system: NCI-H23
[2] = system: HCT-116
[3] = system: NCI-H226
[4] = system: SNB-75
[5] = system: M14
[6] = system: U-251
[7] = system: RXF 393
[8] = system: OVCAR-8
[9] = system: KM12
[10] = system: SR
[11] = system: UO-31
[12] = system: HL-60
[13] = system: CCRF-CEM
[14] = system: MOLT-4
[15] = system: SF-295
[16] = system: LOX IMVI
[17] = system: HT-29
[18] = system: SK-MEL-5
[19] = system: EKVX
[20] = system: PC-3

Measured: GI50

C=C(Br)C(C)(Cl)CCC(Br)C(C)(C)Br (stereo not drawn)
inactive: [1] 72.8 µM | [2] 31.9 µM | [3] > 100 µM | [4] 46 µM | [5] 50.4 µM | [6] 88.9 µM | [7] 22.4 µM | [8] > 100 µM | [9] 99.1 µM | [10] 22.1 µM | [11] 84.3 µM | [12] 19.9 µM | [13] 22.5 µM | [14] 31 µM | [15] 47.2 µM | [16] 16.6 µM | [17] 47.2 µM | [18] 65.3 µM

CC(=O)O/N=C/c1ncccc1CO
inactive: [1] > 100 µM | [19] > 100 µM | [2] > 100 µM | [3] > 100 µM | [4] > 100 µM | [5] > 100 µM | [6] > 100 µM | [7] > 100 µM | [8] > 100 µM | [9] > 100 µM | [10] > 100 µM | [11] > 100 µM | [12] > 100 µM | [13] > 100 µM | [14] > 100 µM | [15] > 100 µM | [16] > 100 µM | [17] > 100 µM | [18] > 100 µM

CCOC(=N)/C(=C1\OC(=N)C(c2ccc(Cl)cc2)=C1O)c1ccc(Cl)cc1
inactive: [1] 15.3 µM | [19] 18.1 µM | [2] 16.9 µM | [3] 20.5 µM | [4] 18.8 µM | [5] 17.4 µM | [6] 16.8 µM | [7] 13.8 µM | [8] 15.4 µM | [9] 18.4 µM | [10] 16.7 µM | [11] 17.5 µM | [12] 17.3 µM | [13] 18.2 µM | [14] 17.9 µM | [15] 25.3 µM | [16] 13.9 µM | [17] 23.2 µM

O/N=C1/CCC/C1=C\c1ccccc1
inactive: [1] > 100 µM | [19] 21.9 µM | [2] > 100 µM | [3] > 100 µM | [4] 18.5 µM | [5] > 100 µM | [6] > 100 µM | [7] 96.6 µM | [8] > 100 µM | [9] > 100 µM | [10] 12.4 µM | [11] > 100 µM | [12] 28.6 µM | [13] > 100 µM | [14] 42.6 µM | [15] > 100 µM | [16] > 100 µM | [17] > 10 µM | [18] > 100 µM

Cc1ccc(NC(=O)CCc2nc(N)nc(N)c2-c2ccccc2)cc1C
inactive: [1] > 100 µM | [19] > 100 µM | [2] > 100 µM | [3] > 100 µM | [4] 58.7 µM | [5] > 100 µM | [6] > 100 µM | [8] > 100 µM | [9] > 100 µM | [10] > 100 µM | [11] > 100 µM | [12] > 100 µM | [13] > 100 µM | [14] > 100 µM | [15] > 100 µM | [17] > 100 µM | [18] > 100 µM

O=C1[C@H]2ON(c3ccccc3)C(c3ccccc3Cl)[C@H]2C(=O)N1c1ccc(Cc2ccc(N3C(=O)[C@@H]4ON(c5ccccc5)C(c5ccccc5Cl)[C@@H]4C3=O)cc2)cc1 (stereo partly drawn)
inactive: [1] > 100 µM | [19] > 100 µM | [2] > 100 µM | [3] > 100 µM | [4] > 100 µM | [5] 21.7 µM | [6] > 100 µM | [8] > 100 µM | [9] > 100 µM | [10] > 100 µM | [11] > 100 µM | [12] > 100 µM | [13] > 100 µM | [14] > 100 µM | [15] > 100 µM | [16] > 100 µM | [17] > 100 µM | [18] 71.3 µM

O=C(C[n+]1ccccc1)N/N=C(/CCC(=O)N(Cc1ccccc1)Cc1ccccc1)CC(=O)c1ccccc1
inactive: [1] > 100 µM | [19] > 100 µM | [2] > 100 µM | [3] > 100 µM | [4] > 100 µM | [5] > 100 µM | [6] > 100 µM | [7] > 100 µM | [8] > 100 µM | [9] > 100 µM | [10] > 100 µM | [11] > 100 µM | [12] > 100 µM | [13] > 100 µM | [14] > 100 µM | [15] > 100 µM | [16] > 100 µM | [17] > 100 µM | [18] > 100 µM

CN(C)C(=O)c1ccc([N+](=O)[O-])cc1
inactive: [1] > 100 µM | [19] > 100 µM | [2] > 100 µM | [3] > 100 µM | [4] > 100 µM | [5] > 100 µM | [6] > 100 µM | [7] > 100 µM | [8] > 100 µM | [9] > 100 µM | [10] > 100 µM | [11] > 100 µM | [12] > 100 µM | [13] > 100 µM | [14] > 100 µM | [15] > 100 µM | [16] > 100 µM | [17] > 100 µM | [18] > 100 µM

COc1ccc(NCn2nc(CCCCCCCCc3nn(CNc4ccc(OC)cc4)c(=S)o3)oc2=S)cc1
inactive: [1] > 100 µM | [19] > 100 µM | [2] 21 µM | [3] > 100 µM | [4] > 100 µM | [5] > 100 µM | [6] > 100 µM | [7] > 100 µM | [9] > 100 µM | [11] > 100 µM | [20] > 100 µM | [14] > 100 µM | [15] > 100 µM | [17] > 100 µM | [18] > 100 µM

CC(=O)Nc1cccc(N2C(=O)/C(=C\c3cccc(Oc4ccccc4)c3)SC2c2ccccc2)c1 (stereo not drawn)
inactive: [1] 83.2 µM | [19] > 100 µM | [2] 27 µM | [3] > 100 µM | [5] > 100 µM | [6] 35.5 µM | [7] 27.7 µM | [8] 92.5 µM | [9] 80.7 µM | [10] 17.2 µM | [11] 47.9 µM | [12] 36.6 µM | [13] 14.9 µM | [14] 26.5 µM | [15] > 100 µM | [16] 37.8 µM | [17] 80.7 µM | [18] 33.5 µM

Oc1c(OCc2nnc(CCCCCCCCc3nnc(COc4ccc5ccccc5c4O)o3)o2)ccc2ccccc12
active: [2] 0.47 µM
inactive: [1] 61.2 µM | [19] > 100 µM | [3] > 100 µM | [4] 62.7 µM | [5] > 100 µM | [6] 41.7 µM | [7] > 100 µM | [9] > 100 µM | [11] 59.6 µM | [20] > 100 µM | [14] 19.7 µM | [15] > 100 µM | [17] > 100 µM | [18] > 100 µM

CC1(C)OC2CC3COC(=O)C3CC2O1 (stereo not drawn)
inactive: [1] > 100 µM | [19] > 100 µM | [2] > 100 µM | [3] > 100 µM | [4] > 100 µM | [5] > 100 µM | [6] > 100 µM | [8] > 100 µM | [9] > 100 µM | [10] > 100 µM | [11] > 100 µM | [12] > 100 µM | [13] > 100 µM | [14] > 100 µM | [15] > 100 µM | [16] > 100 µM | [17] > 100 µM | [18] > 100 µM

COC(=O)CC[C@]12C[C@]13CC[C@]1(C)C4C(C)C[C@]5(CC(C)C(=O)O5)OC4CC1(C)C3CCC2C(C)(C)O (stereo partly drawn)
inactive: [1] 97.3 µM | [19] > 100 µM | [2] 85.7 µM | [4] 75 µM | [5] > 100 µM | [6] 62.2 µM | [7] 46.8 µM | [8] 41.7 µM | [9] 48.3 µM | [10] 42.2 µM | [11] 59.2 µM | [12] 23.3 µM | [15] > 100 µM | [16] 32.5 µM | [17] > 100 µM | [18] 35.6 µM

Nc1ncnc2c1ncn2[C@]1(CO)C=C(CO)C(O)C1O (stereo partly drawn)
inactive: [1] > 100 µM | [2] 73.1 µM | [3] > 100 µM | [4] > 100 µM | [5] > 100 µM | [6] > 100 µM | [7] > 100 µM | [9] > 100 µM | [10] > 100 µM | [12] > 100 µM | [14] > 100 µM | [15] > 100 µM | [16] > 100 µM | [17] > 100 µM | [18] > 100 µM

Cc1cc(O)cc2oc(=O)c3c(O)cc(O)cc3c12 [ALTERNARIOL]
inactive: [1] 20.7 µM | [19] 6.71 µM | [2] 17.6 µM | [3] 19.5 µM | [4] 12.7 µM | [5] 60 µM | [6] 28.5 µM | [7] 23.3 µM | [8] 43.2 µM | [9] 26.8 µM | [10] 3.69 µM | [11] 34.6 µM | [12] 16.4 µM | [13] 23.4 µM | [14] 7.59 µM | [15] 26.3 µM | [16] 16.1 µM | [17] 39.3 µM | [18] 18.5 µM

Reference: ChEMBL document CHEMBL1201862, “PubChem BioAssay data set” (2004)
